The assay concerns S. aureus (ATCC 6538). Description: Disk assay of growth inhibition of S. aureus on agar plates. It counts as cell-based, Staphylococcus aureus. How it is done: The ability of FA-Glu to inhibit the growth or kill S. aureus (ATCC 6538) was examined.
S. aureus was grown in liquid culture in either Tryptic Soy Broth (TSB; Sigma), which contains casein peptone 17 g/l, soya peptone 3 g/l, sodium chloride 5 g/l, dipotassium hydrogen phosphate 2.5 g/l, and glucose 2.5 g/l or M9YE (disodium hydrogen phosphate 6 g/l, monopotassium phosphate 3 g/l, sodium chloride 0.5 g/l, ammonium chloride 1 g/l, yeast extract 3 g/l, glucose 5 g/l, and casamino acids 10 g/l) at 30° C. Disk assays were carried out on M9YE plates (M9YE liquid media plus 15 g/l agar) and YPD plates (peptone 20 g/l, yeast extract 10 g/l, glucose 20 g/l, agar 15 g/l). S. aureus was plated out evenly using a sterile cotton swab. Blank Paper disks 6 mm were placed into a sterile container and then different dilutions of FA-Glu (25 ug, 100 ug, 300 ug) that had been re-suspended in a diluted aqueous solution containing ammonium hydroxide (pH 10.2) were added to the disks. The disks were allowed to absorb and dry. Using sterile tweezers, the disks were placed onto the plates that had been swabbed with Staphylococcus aureus. They were then incubated at 28° C. over approximately 65 hours.
Disk assays were repeated as above using a commercially available acyl amino acid, cocoyl glutamate (Ajinomoto, Japan).

Residues, ends and D or L forms follow the SMILES beside them.

`CC(C)CCCCCCCCC[C@@H]1CC(=O)N[C@@H](CCC(=O)O)C(=O)N[C@@H](CC(C)C)C(=O)N[C@H](CC(C)C)C(=O)N[C@@H](C(C)C)C(=O)N[C@@H](CC(=O)O)C(=O)N[C@H](CC(C)C)C(=O)N[C@@H](CC(C)C)C(=O)O1` [surfactin, reference compound] (HELM PEPTIDE1{E.L.[dL].V.D.[dL].L}|CHEM1{[CC(C)CCCCCCCCC[C@H](CC(=O)[*:1])O[*:2]]}$PEPTIDE1,CHEM1,1:R1-1:R1|PEPTIDE1,CHEM1,7:R2-1:R2$$$V2.0): the “halo formation around disk (control experiment)” value (300 ug absorbed onto a disk) is recorded as “produced a halo, but there was cell growth within the halo”.
cocoyl glutamate [reference compound]: the regrowth in halos entry (disk assay plates) was “regrowth occurred”. The “halo formation around disk” value (disk assays repeated as above) is “produced a halo”. Further, the “halo size relative to FA-Glu” value (same concentration and same conditions as FA-Glu) is “larger than halos observed using FA-Glu”.

The record behind these values is patent US20110034557A1, “ANTIMICROBIAL COMPOSITIONS AND USES THEREOF” (MODULAR GENETICS, INC., priority 2009, published 2011).
